The record followed here is PubChem BioAssay (NCI).

Where “and” joins values, the source holds several entries; their conditions need not be identical. Equal values may be shown once.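 Tested at 5 concentrations; 48 h exposure; 96-well plates; endpoints linearly interpolated, else capped at highest concentration. Abbreviation: GI50, concentration required for 50% inhibition of growth. TGI marks complete inhibition of growth.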

The first assay relates to CCRF-CEM leukemia. The assay is described as follows: inhibition of tumour cell growth, NCI panel, 48 h.
Regarding `NC1(C(=O)OCc2ccccc2)CCCC1`, the TGI is > 100 µM.

`Cc1cc(/C=C/c2ccc3cc(N(C)C)ccc3[n+]2C)c(C)n1-c1ccccc1`: the GI50 is 0.218 µM and the TGI turned out to be 2.6 µM.

With `Cn1cnc([N+](=O)[O-])c1S(=O)(=O)Oc1cccc2ccccc12`, the GI50 is 1.32 µM and the TGI came to 9.3 µM.

For `CCCC(=O)OC1CC(n2cc(F)c(=O)[nH]c2=O)OC1COP(=O)(OCC(Cl)(Cl)Cl)OCC(Cl)(Cl)Cl` (configuration not stated), the TGI came to 94.4 µM.

On to `Fc1cc2[nH]ncc2c2c3c(c(-c4cn[nH]c4)nc12)CCCC3`, for which the GI50 is 1.13 µM and the TGI is > 100 µM.

With `COc1cc(OC)cc(-c2cc(=O)c3c(OC)c(OC)c(OC)c(OC)c3o2)c1`, the TGI is > 100 µM.

Regarding `CSc1nc(NC2OCC(OC(C)=O)C(OC(C)=O)C2OC(C)=O)c(N=CC=Nc2c(NC3OCC(OC(C)=O)C(OC(C)=O)C3OC(C)=O)nc(SC)[nH]c2=O)c(=O)[nH]1` (configuration not stated), the TGI was > 100 µM.

`CN(C)CCSC1=Nc2ccc(Cl)cc2C(c2ccccc2Cl)=NC1`: the GI50 was 21.5 µM and 46.2 µM; the TGI was 82.1 µM and > 100 µM.

Turning to `O=C1OC(O)[C@@H]2[C@H]1[C@H]1CC[C@@H]2O1` (some centres not stated), the GI50 was > 100 µM and the TGI was > 100 µM.

The test system of another assay is DU-145 prostate. Kind of assay: inhibition of tumour cell growth, NCI panel, 48 h.
For the compound `CN(C(=O)c1ccc(C(F)(F)F)cc1)c1ccc(Oc2ccc3c(c2)cc(C(=O)N2CCN(Cc4ccc(OC(F)F)cc4)CC2)n3C)nc1`, the GI50 is > 100 µM and the TGI is > 100 µM.

Take `O=S(=O)(CCn1c(Sc2ccccc2)c(Sc2ccccc2)c2ccccc21)c1ccccc1`: the TGI is > 100 µM.

Regarding `O=c1[nH]c(Nc2nc3ccccc3[nH]2)nc(O)c1-c1ccccc1`, the TGI is > 100 µM.

For the compound `O=C(Nc1ccc(Cl)cc1)c1cccc(NC2=C(Cl)C(=O)N(Cc3ccccc3)C2=O)c1`, the GI50 was 6.39 µM and the TGI came out at 19.7 µM.

Consider `O=C(/C=C/c1ccncc1)c1cc(Cl)ccc1O`, for which the GI50 is 17.4 µM and the TGI worked out at 31.5 µM.

Turning to `Nc1ncnc2n[nH]c(Nc3ccc(F)cc3)c12`, the GI50 was 9.33 µM and the TGI amounted to 42.1 µM.

In the case of `OCC#Cc1ccccc1C#Cc1ccccc1`, the GI50 is 14.9 µM and the TGI was 28.2 µM.

`CCN(CC)c1ccc(-c2cc(-c3cc(OC)c(OC)c(OC)c3)nc(N3CCOCC3)c2C#N)cc1`: the GI50 was 2.18 µM and the TGI is > 100 µM.

For `CC(=O)OC1=CC(n2cc(F)c(=O)[nH]c2=O)OC(C)C1=O` (configuration not stated), the TGI was > 100 µM.

Take `NC1(C(=O)OCc2ccccc2)CCCC1`: the TGI was found to be 37.5 µM.

`Cc1cc(/C=C/c2ccc3cc(N(C)C)ccc3[n+]2C)c(C)n1-c1ccccc1`: the GI50 is 0.175 µM and the TGI was determined as 0.846 µM.

Turning to `Cn1cnc([N+](=O)[O-])c1S(=O)(=O)Oc1cccc2ccccc12`, the GI50 was 3.14 µM and the TGI was 8.03 µM.

As to `CCCC(=O)OC1CC(n2cc(F)c(=O)[nH]c2=O)OC1COP(=O)(OCC(Cl)(Cl)Cl)OCC(Cl)(Cl)Cl` (configuration not stated), the TGI is > 67.6 µM.

In the case of `Fc1cc2[nH]ncc2c2c3c(c(-c4cn[nH]c4)nc12)CCCC3`, the GI50 is 1.09 µM and the TGI is 15.5 µM.

Regarding `COc1cc(OC)cc(-c2cc(=O)c3c(OC)c(OC)c(OC)c(OC)c3o2)c1`, the TGI was > 100 µM.

For the compound `CSc1nc(NC2OCC(OC(C)=O)C(OC(C)=O)C2OC(C)=O)c(N=CC=Nc2c(NC3OCC(OC(C)=O)C(OC(C)=O)C3OC(C)=O)nc(SC)[nH]c2=O)c(=O)[nH]1` (configuration not stated), the TGI was > 100 µM.

As to `CN(C)CCSC1=Nc2ccc(Cl)cc2C(c2ccccc2Cl)=NC1`, the GI50 is 14.4 µM and 60.2 µM; the TGI is 30.5 µM and > 100 µM.

In the case of `O=C1OC(O)[C@@H]2[C@H]1[C@H]1CC[C@@H]2O1` (some centres not stated), the GI50 is > 87.3 µM and the TGI is > 100 µM.

In the next assay the test system is NCI-H522 lung. Kind of assay: inhibition of tumour cell growth, NCI panel, 48 h.
For `CN(C(=O)c1ccc(C(F)(F)F)cc1)c1ccc(Oc2ccc3c(c2)cc(C(=O)N2CCN(Cc4ccc(OC(F)F)cc4)CC2)n3C)nc1`, the GI50 was 0.677 µM and the TGI was > 90 µM.

Take `O=S(=O)(CCn1c(Sc2ccccc2)c(Sc2ccccc2)c2ccccc21)c1ccccc1`: the TGI is > 100 µM.

For `O=c1[nH]c(Nc2nc3ccccc3[nH]2)nc(O)c1-c1ccccc1`, the TGI is > 100 µM.

For `O=C(Nc1ccc(Cl)cc1)c1cccc(NC2=C(Cl)C(=O)N(Cc3ccccc3)C2=O)c1`, the GI50 is 7.09 µM and the TGI amounted to 29 µM.

In the case of `O=C(/C=C/c1ccncc1)c1cc(Cl)ccc1O`, the GI50 is 14.1 µM and the TGI came to 29.6 µM.

For `Nc1ncnc2n[nH]c(Nc3ccc(F)cc3)c12`, the GI50 is 29.8 µM and the TGI is > 100 µM.

Turning to `OCC#Cc1ccccc1C#Cc1ccccc1`, the GI50 is 24.1 µM and the TGI turned out to be 69 µM.

For `CCN(CC)c1ccc(-c2cc(-c3cc(OC)c(OC)c(OC)c3)nc(N3CCOCC3)c2C#N)cc1`, the GI50 was 7.07 µM and the TGI amounted to 83.3 µM.

Regarding `CC(=O)OC1=CC(n2cc(F)c(=O)[nH]c2=O)OC(C)C1=O` (configuration not stated), the TGI is > 100 µM.

For the compound `NC1(C(=O)OCc2ccccc2)CCCC1`, the TGI worked out at 42.6 µM.

As for `Cc1cc(/C=C/c2ccc3cc(N(C)C)ccc3[n+]2C)c(C)n1-c1ccccc1`, the GI50 is 0.103 µM and the TGI is 0.989 µM.

With `Cn1cnc([N+](=O)[O-])c1S(=O)(=O)Oc1cccc2ccccc12`, the GI50 was 0.271 µM and the TGI is 1.18 µM.

For `CCCC(=O)OC1CC(n2cc(F)c(=O)[nH]c2=O)OC1COP(=O)(OCC(Cl)(Cl)Cl)OCC(Cl)(Cl)Cl` (configuration not stated), the TGI amounted to 16.6 µM.

Consider `Fc1cc2[nH]ncc2c2c3c(c(-c4cn[nH]c4)nc12)CCCC3`, for which the GI50 was 0.829 µM and the TGI is 6.12 µM.

In the case of `COc1cc(OC)cc(-c2cc(=O)c3c(OC)c(OC)c(OC)c(OC)c3o2)c1`, the TGI is 51.1 µM.

For `CSc1nc(NC2OCC(OC(C)=O)C(OC(C)=O)C2OC(C)=O)c(N=CC=Nc2c(NC3OCC(OC(C)=O)C(OC(C)=O)C3OC(C)=O)nc(SC)[nH]c2=O)c(=O)[nH]1` (configuration not stated), the TGI is > 83.8 µM.

As to `CN(C)CCSC1=Nc2ccc(Cl)cc2C(c2ccccc2Cl)=NC1`, the GI50 is 6.68 µM and 52.2 µM; the TGI was 21.6 µM and > 100 µM.

For the compound `O=C1OC(O)[C@@H]2[C@H]1[C@H]1CC[C@@H]2O1` (some centres not stated), the GI50 was 26.3 µM and the TGI was 74.9 µM.
